Measurements as given in paper PMC4850841 (Journal of medicinal chemistry, 2013).

Test system: GluN2C/D-containing NMDA receptors
Assay: Potentiation of NMDA receptors, results stated jointly for both subtypes
Format: cell-based, rat
Settings: not given

Row | SMILES | activity on GluN2C- or GluN2D-containing receptors
1 | CCOc1ccc(OCC2c3cc(OC)c(OC)cc3CCN2C(=O)c2cccc(Cl)c2)cc1 (stereo not drawn) [compound 100, (3-chlorophenyl)(1-((4-ethoxyphenoxy)methyl)-6,7-dimethoxy-3,4-dihydroisoquinolin-2(1H)-yl)methanone] | no detectable activity
2 | CCOc1ccc(OCC2c3cc(OC)c(OC)cc3CCN2C(=O)c2cccc(Br)c2)cc1 (stereo not drawn) [compound 101, (3-bromophenyl)(1-((4-ethoxyphenoxy)methyl)-6,7-dimethoxy-3,4-dihydroisoquinolin-2(1H)-yl)methanone] | no detectable activity
3 | COc1ccc(OCC2c3ccc(OC)c(OC)c3CCN2C(=O)c2cccc(Cl)c2)cc1 (stereo not drawn) [compound 120, (3-chlorophenyl)(5,6-dimethoxy-1-((4-methoxyphenoxy)methyl)-3,4-dihydroisoquinolin-2(1H)-yl)methanone] | inactive
4 | COc1ccc(OCC2c3ccc(OC)c(OC)c3CCN2C(=O)c2cccc(Br)c2)cc1 (stereo not drawn) [compound 121, (3-bromophenyl)(5,6-dimethoxy-1-((4-methoxyphenoxy)methyl)-3,4-dihydroisoquinolin-2(1H)-yl)methanone] | inactive
5 | COc1ccc(SCC2c3cc(OC)c(OC)cc3CCN2C(=O)c2ccccc2)cc1 (stereo not drawn) [compound 127, (6,7-dimethoxy-1-(((4-methoxyphenyl)thio)methyl)-3,4-dihydroisoquinolin-2(1H)-yl)(phenyl)methanone] | eliminated activity
6 | COc1cc2c(cc1OC)C(COc1ccc([N+](=O)[O-])cc1)N(C(=O)c1ccccc1)CC2 (stereo not drawn) [compound 128, (6,7-dimethoxy-1-((4-nitrophenoxy)methyl)-3,4-dihydroisoquinolin-2(1H)-yl)(phenyl)methanone] | no detectable activity
7 | COc1cc2c(cc1OC)C(COc1ccc([N+](=O)[O-])cc1)N(C(=O)c1cccc(Cl)c1)CC2 (stereo not drawn) [compound 129, (3-chlorophenyl)(6,7-dimethoxy-1-((4-nitrophenoxy)methyl)-3,4-dihydroisoquinolin-2(1H)-yl)methanone] | no detectable activity
8 | COc1cc2c(cc1OC)C(COc1ccc([N+](=O)[O-])cc1)N(C(=O)c1cccc(Br)c1)CC2 (stereo not drawn) [compound 130, ((3-bromophenyl)(6,7-dimethoxy-1-((4-nitrophenoxy)methyl)-3,4-dihydroisoquinolin-2(1H)-yl)methanone)] | no detectable activity
9 | COc1cc2c(cc1OC)C(COc1ccc(N)cc1)N(C(=O)c1ccccc1)CC2 (stereo not drawn) [compound 131, ((1-((4-aminophenoxy)methyl)-6,7-dimethoxy-3,4-dihydroisoquinolin-2(1H)-yl)(phenyl)methanone)] | no detectable activity
10 | COc1cc2c(cc1OC)C(COc1ccc(N)cc1)N(C(=O)c1cccc(Cl)c1)CC2 (stereo not drawn) [compound 132, ((1-((4-aminophenoxy)methyl)-6,7-dimethoxy-3,4-dihydroisoquinolin-2(1H)-yl)(3-chlorophenyl)methanone)] | no detectable activity
11 | COc1cc2c(cc1OC)C(COc1ccc(N)cc1)N(C(=O)c1cccc(Br)c1)CC2 (stereo not drawn) [compound 133, ((1-((4-aminophenoxy)methyl)-6,7-dimethoxy-3,4-dihydroisoquinolin-2(1H)-yl)(3-bromophenyl)methanone)] | no detectable activity
12 | COc1ccc(OCC2c3cc(OC)c(OC)cc3CCN2Cc2ccccc2)cc1 (stereo not drawn) [compound 141, 2-benzyl-6,7-dimethoxy-1-((4-methoxyphenoxy)methyl)-1,2,3,4-tetrahydroisoquinoline] | eliminated all activity
13 | COc1ccc(OCC2c3cc(OC)c(OC)cc3CCN2C(=S)Nc2ccccc2)cc1 (stereo not drawn) [compound 211] | loss of activity
14 | COc1ccc(OCC2c3cc(OC)c(OC)cc3CCN2C(=S)Nc2cccc(Cl)c2)cc1 (stereo not drawn) [compound 212] | loss of activity
15 | COc1ccc(OCC2c3cc(OC)c(OC)cc3CCN2C(=S)Nc2cccc(F)c2)cc1 (stereo not drawn) [compound 213] | loss of activity
16 | COc1ccc(OCC2c3cc(OC)c(OC)cc3CCN2C(=S)Nc2cccc(Br)c2)cc1 (stereo not drawn) [compound 214] | loss of activity
17 | COc1ccc(OCC2c3cc(OC)c(OC)cc3CCN2C(=S)Nc2cccc(C)c2)cc1 (stereo not drawn) [compound 215] | weak potentiating activity
18 | COc1ccc(OCC2c3cc(OC)c(OC)cc3CCN2S(=O)(=O)c2ccccc2)cc1 (stereo not drawn) [compound 216] | eliminated all activity
19 | COc1ccc(OCC2c3cc(OC)c(OC)cc3CCN2S(=O)(=O)c2cccc(Cl)c2)cc1 (stereo not drawn) [compound 217] | eliminated all activity

Same assay, conditions: read-out: EC50, GluN2C/GluN2D stated jointly; maximally effective concentrations of glutamate and glycine

Row | SMILES | EC50 [nM]
20 | COc1ccc(OCC2c3ccc(OCc4ccccc4)cc3CCN2C(=O)c2cccc(Cl)c2)cc1 (stereo not drawn) [compound 82, (6-(benzyloxy)-1-((4-methoxyphenoxy)methyl)-3,4-dihydroisoquinolin-2(1H)-yl)(3-chlorophenyl)methanone] | 300 to 400
21 | COc1ccc(OCC2c3cc(C)c(C)cc3CCN2C(=O)c2cccc(Cl)c2)cc1 (stereo not drawn) [compound 122, (3-chlorophenyl)(1-((4-methoxyphenoxy)methyl)-6,7-dimethyl-3,4-dihydroisoquinolin-2(1H)-yl)methanone] | ~1000
22 | COc1ccc(OCC2c3cc(C)c(C)cc3CCN2C(=O)c2cccc(Br)c2)cc1 (stereo not drawn) [compound 123, (3-bromophenyl)(1-((4-methoxyphenoxy)methyl)-6,7-dimethyl-3,4-dihydroisoquinolin-2(1H)-yl)methanone] | ~1000

Biological target: GluA1 (Rattus norvegicus, UniProt P19490)
Sequence (P19490 19-907): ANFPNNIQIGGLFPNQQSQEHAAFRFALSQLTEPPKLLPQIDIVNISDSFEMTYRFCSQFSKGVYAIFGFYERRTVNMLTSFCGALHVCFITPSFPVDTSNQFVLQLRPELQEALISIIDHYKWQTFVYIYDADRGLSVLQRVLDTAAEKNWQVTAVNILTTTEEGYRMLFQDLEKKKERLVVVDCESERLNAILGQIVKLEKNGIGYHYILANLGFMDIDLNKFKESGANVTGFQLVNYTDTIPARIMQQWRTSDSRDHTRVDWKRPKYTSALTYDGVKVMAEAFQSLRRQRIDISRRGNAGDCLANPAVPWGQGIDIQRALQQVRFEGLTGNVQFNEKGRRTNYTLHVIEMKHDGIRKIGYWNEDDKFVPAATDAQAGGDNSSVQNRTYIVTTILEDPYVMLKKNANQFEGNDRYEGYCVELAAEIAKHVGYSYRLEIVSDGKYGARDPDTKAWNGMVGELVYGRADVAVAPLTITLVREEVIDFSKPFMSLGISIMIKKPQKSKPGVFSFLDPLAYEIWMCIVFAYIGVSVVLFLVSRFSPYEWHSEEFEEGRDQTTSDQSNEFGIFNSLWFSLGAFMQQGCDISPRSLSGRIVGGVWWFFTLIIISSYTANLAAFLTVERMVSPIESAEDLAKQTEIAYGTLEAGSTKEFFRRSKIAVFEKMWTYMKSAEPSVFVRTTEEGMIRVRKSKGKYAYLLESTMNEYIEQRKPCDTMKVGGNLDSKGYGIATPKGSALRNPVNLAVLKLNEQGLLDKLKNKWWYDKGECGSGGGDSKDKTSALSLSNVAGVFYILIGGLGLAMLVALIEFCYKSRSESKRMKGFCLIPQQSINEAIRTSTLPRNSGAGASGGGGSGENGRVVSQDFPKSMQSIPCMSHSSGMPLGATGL
Assay: Two electrode voltage clamp recordings, Xenopus laevis oocytes
Format: cell-based
Settings: co-applied with 100 µM glutamate

Row | SMILES | effect on homomeric GluA1 responses
23 | COc1ccc(OCC2c3cc(OC)c(OC)cc3CCN2C(=O)c2cc(Cl)cc(Cl)c2)cc1 (stereo not drawn) [compound 87, (3,5-dichlorophenyl)(6,7-dimethoxy-1-((4-methoxyphenoxy)methyl)-3,4-dihydroisoquinolin-2(1H)-yl)methanone] | no effects
24 | COc1ccc(OCC2c3cc(OC)c(OC)cc3CCN2C(=O)c2cccc(CCl)c2)cc1 (stereo not drawn) [compound 96, (3-(chloromethyl)phenyl)(6,7-dimethoxy-1-((4-methoxyphenoxy)methyl)-3,4-dihydroisoquinolin-2(1H)-yl)methanone] | no effects
25 | COc1ccc(OCC2c3cc(OC)c(OC)cc3CCN2C(=O)c2cccc(C#N)c2)cc1 (stereo not drawn) [compound 98, 3-(6,7-dimethoxy-1-((4-methoxyphenoxy)methyl)-1,2,3,4-tetrahydroisoquinoline-2-carbonyl)benzonitrile] | no effects
26 | COc1ccc(OCC2c3cc4c(cc3CCN2C(=O)c2cccc(Cl)c2)OCO4)cc1 (stereo not drawn) [compound 111, (3-chlorophenyl)(5-((4-methoxyphenoxy)methyl)-7,8-dihydro-[1,3]dioxolo[4,5-g]isoquinolin-6(5H)-yl)methanone] | no effects
27 | COc1ccc(OCC2c3ccc(OC)cc3CCN2C(=O)c2cccc(Cl)c2)cc1 (stereo not drawn) [compound 117, (3-chlorophenyl)(6-methoxy-1-((4-methoxyphenoxy)methyl)-3,4-dihydroisoquinolin-2(1H)-yl)methanone] | no effects
28 | COc1ccc(OCC2c3ccc(OC)cc3CCN2C(=O)c2cccc(Br)c2)cc1 (stereo not drawn) [compound 118, (3-bromophenyl)(6-methoxy-1-((4-methoxyphenoxy)methyl)-3,4-dihydroisoquinolin-2(1H)-yl)methanone] | no effects
29 | COc1ccc(OCC2c3cc(OC)c(OC)cc3CCN2C(=O)c2ccc3ccccc3c2)cc1 (stereo not drawn) [compound 138, (6,7-dimethoxy-1-((4-methoxyphenoxy)methyl)-3,4-dihydroisoquinolin-2(1H)-yl)(naphthalen-2-yl)methanone] | no effects
30 | COc1ccc(OCC2c3cc(OC)c(OC)cc3CCN2C(=O)CN2CCOCC2)cc1 (stereo not drawn) [compound 140, 1-(6,7-dimethoxy-1-((4-methoxyphenoxy)methyl)-3,4-dihydroisoquinolin-2(1H)-yl)-2-morpholinoethanone] | no effects
31 | COc1ccc(/C=C/C2c3cc(OC)c(OC)cc3CCN2C(=O)c2ccccc2)cc1 (stereo not drawn) [compound 155, (E)-(6,7-dimethoxy-1-(4-methoxystyryl)-3,4-dihydroisoquinolin-2(1H)-yl)(phenyl)methanone] | no effects
32 | COc1ccc(/C=C/C2c3cc(OC)c(OC)cc3CCN2C(=O)c2cccc(Br)c2)cc1 (stereo not drawn) [compound 157, (E)-(3-bromophenyl)(6,7-dimethoxy-1-(4-methoxystyryl)-3,4-dihydroisoquinolin-2(1H)-yl)methanone] | no effects
33 | COc1ccc(/C=C/C2c3ccc(OC)cc3CCN2C(=O)c2cccc(Cl)c2)cc1 (stereo not drawn) [compound 158, (E)-(3-chlorophenyl)(6-methoxy-1-(4-methoxystyryl)-3,4-dihydroisoquinolin-2(1H)-yl)methanone] | no effects
34 | COc1ccc(/C=C/C2c3ccc(OC)cc3CCN2C(=O)c2cccc(Br)c2)cc1 (stereo not drawn) [compound 159, (E)-(3-bromophenyl)(6-methoxy-1-(4-methoxystyryl)-3,4-dihydroisoquinolin-2(1H)-yl)methanone] | no effects
35 | COc1ccc(CCC2c3cc(OC)c(OC)cc3CCN2C(=O)c2cccc(Cl)c2)cc1 (stereo not drawn) [compound 161, (3-chlorophenyl)(6,7-dimethoxy-1-(4-methoxyphenethyl)-3,4-dihydroisoquinolin-2(1H)-yl)methanone] | no effects
36 | COc1ccc(CCC2c3cc(OC)c(OC)cc3CCN2C(=O)c2cccc(Br)c2)cc1 (stereo not drawn) [compound 162, (3-bromophenyl)(6,7-dimethoxy-1-(4-methoxyphenethyl)-3,4-dihydroisoquinolin-2(1H)-yl)methanone] | no effects
